Data from US10087178B2, “Substituted spiropyrido[1,2-a]pyrazine derivative and medicinal use thereof as HIV integrase inhibitor” (priority 2012, dated 2018).
Structures can show the parent of a compound that is named as a salt.

The compounds below were run on HIV-1 NL4-3 strain (assay: Evaluation of antiviral activity: acute infection system of MT-4 cell with HIV-1 NL4-3 strain). Conditions: Human immunodeficiency virus 1, NL43, MT4, 120 h, MT-4 cells infected with HIV-1 NL4-3 strain (MOI 0.05), cultured 5 days, Cell Titer-Glo; read-out: antiviral activity (EC50).
Format: cell-based

| SMILES | EC50 |
| --- | --- |
| CO[C@H]1C[C@@]2(Cn3cc(C(=O)NCc4ccc(F)cc4F)c(=O)c(O)c3C(=O)N2C(C)C)C1 [Example S52, N-(2,4-difluorobenzyl)-9′-hydroxy-2′-isopropyl-trans-3-methoxy-1′,8′-dioxo-1′,2′,4′,8′-tetrahydrospiro[cyclobutane-1,3′-pyrido[1,2-a]pyrazine]-7′-carboxamide hydrochloride] | 3.5 nM |
| CC(C)N1C[C@]2(C[C@@H](OS(C)(=O)=O)C2)n2cc(C(=O)NCc3ccc(F)cc3F)c(=O)c(O)c2C1=O [Example S34, 7′-(2,4-difluorobenzylcarbamoyl)-9′-hydroxy-2′-isopropyl-1′,8′-dioxo-1′,2′,3′,8′-tetrahydrospiro[cyclobutane-1,4′-pyrido[1,2-a]pyrazine]- trans-3-yl methanesulfonate hydrochloride] | 5.7 nM |
| CN1C[C@]2(C[C@@H](CO)C2)n2cc(C(=O)NCc3cccc(Cl)c3F)c(=O)c(O)c2C1=O [Example S36, N-(3-chloro-2-fluorobenzyl)-9′-hydroxy-trans-3-(hydroxymethyl)-2′-methyl-1′,8′-dioxo-1′,2′,3′,8′-tetrahydrospiro[cyclobutane-1,4′-pyrido[1,2-a]pyrazine]-7′-carboxamide] | 15 nM |
| CN1C(=O)c2c(O)c(=O)c(C(=O)NCc3cccc(Cl)c3F)cn2C[C@]12C[C@H]2CO [Example T49, (1R,2R)-N-(3-chloro-2-fluorobenzyl)-9′-hydroxy-2-(hydroxymethyl)-2′-methyl-1′,8′-dioxo-1′,2′,4′,8′-tetrahydrospiro[cyclopropane-1,3′-pyrido[1,2-a]pyrazine]-7′-carboxamide] | 7.2 nM |
| CCOC[C@H]1C[C@]2(CN(CC)C(=O)c3c(O)c(=O)c(C(=O)NCc4cccc(Cl)c4F)cn32)C1 [Example S48, N-(3-chloro-2-fluorobenzyl)- cis-3-(ethoxymethyl)-2′-ethyl-9′-hydroxy-1′,8′-dioxo-1′,2′,3′,8′-tetrahydrospiro[cyclobutane-1,4′-pyrido[1,2-a]pyrazine]-7′-carboxamide hydrochloride] | 4.3 nM |
| CNC(=O)[C@H]1C[C@]2(CN(C(C)C)C(=O)c3c(O)c(=O)c(C(=O)NCc4ccc(F)cc4F)cn32)C1 [Example S30, N^7′-(2,4-difluorobenzyl)-9′-hydroxy-2′-isopropyl-N^3-methyl-1′,8′-dioxo-1′,2′,3′,8′-tetrahydrospiro[cyclobutane-1,4′-pyrido[1,2-a]pyrazine]- cis-3,7′-dicarboxamide hydrochloride] | 170 nM |
| CCCO[C@H]1C[C@]2(CN(C)C(=O)c3c(O)c(=O)c(C(=O)NCc4cccc(Cl)c4F)cn32)C1 [Example S43, N-(3-chloro-2-fluorobenzyl)-9′-hydroxy-2′-methyl-1′-8′-dioxo-cis-3-propoxy-1′,2′,3′,8′-tetrahydrospiro[cyclobutane-1,4′-pyrido[1,2-a]pyrazine]-7′-carboxamide hydrochloride] | 4.7 nM |
| COC[C@H]1C[C@]2(CN(C)C(=O)c3c(OC(=O)CN(C)C)c(=O)c(C(=O)NCc4cccc(Cl)c4F)cn32)C1 [Example S73, 7′-(3-chloro-2-fluorobenzylcarbamoyl)-cis-3-(methoxymethyl)-2′-methyl-1′,8′-dioxo-1′,2′,3′,8′-tetrahydrospiro[cyclobutane-1,4′-pyrido[1,2-a]pyrazin]-9′-yl 2-(dimethylamino)acetate dihydrochloride] | 1.1 nM |

Same assay, conditions: Human immunodeficiency virus 1, NL43, MT4, 120 h, antiviral activity; MT-4 cells infected with HIV-1 NL4-3 (MOI 0.05), 5 days culture, Cell Titer-Glo luminescence; read-out: EC50

| SMILES | EC50 |
| --- | --- |
| CCN1C[C@]2(C[C@@H](OC)C2)n2cc(C(=O)NCc3ccc(F)cc3F)c(=O)c(O)c2C1=O [Example S19, N-(2,4-difluorobenzyl)-2′-ethyl-9′-hydroxy-trans-3-methoxy-1′,8′-dioxo-1′,2′,3′,8′-tetrahydrospiro[cyclobutane-1,4′-pyrido[1,2-a]pyrazine]-7′-carboxamide hydrochloride] | 4.8 nM |
| CN1C[C@]2(C[C@@H](O)C2)n2cc(C(=O)NCc3ccc(F)cc3F)c(=O)c(O)c2C1=O [Example S11, N-(2,4-difluorobenzyl)- trans-3,9′-dihydroxy-2′-methyl-1′,8′-dioxo-1′,2′,3′,8′-tetrahydrospiro[cyclobutane-1,4′-pyrido[1,2-a]pyrazine]-7′-carboxamide hydrobromide] | 25 nM |

Same assay, conditions: Human immunodeficiency virus 1, NL43, MT4, 120 h, read-out: antiviral activity (EC50), MT-4 cells infected with HIV-1 NL4-3 strain (MOI 0.05), cultured 5 days, Cell Titer-Glo

| SMILES | EC50 |
| --- | --- |
| COC[C@H]1C[C@@]12CN(C)C(=O)c1c(O)c(=O)c(C(=O)NCc3cc(OC(C)C)cc(Cl)c3F)cn12 [Example T26, (1S,2S)-N-(3-chloro-2-fluoro-5-isopropoxybenzyl)-9′-hydroxy-2-(methoxymethyl)-2′-methyl-1′,8′-dioxo-1′,2′,3′,8′-tetrahydrospiro[cyclopropane-1,4′-pyrido[1,2-a]pyrazine]-7′-carboxamide hydrochloride] | 15 nM |
| CCN1C[C@@]2(C[C@@H]2CO)n2cc(C(=O)NCc3cccc(Cl)c3F)c(=O)c(O)c2C1=O [Example T18, (1S,2S)-N-(3-chloro-2-fluorobenzyl)-2′-ethyl-9′-hydroxy-2-(hydroxymethyl)-1′,8′-dioxo-1′,2′,3′,8′-tetrahydrospiro[cyclopropane-1,4′-pyrido[1,2-a]pyrazine]-7′-carboxamide hydrochloride] | 10 nM |
| COC[C@@H]1C[C@]12CN(C)C(=O)c1c(O)c(=O)c(C(=O)NCc3cccc(Cl)c3F)cn12 [Example T24, (1R,2R)-N-(3-chloro-2-fluorobenzyl)-9′-hydroxy-2-(methoxymethyl)-2′-methyl-1′,8′-dioxo-1′,2′,3′,8′-tetrahydrospiro[cyclopropane-1,4-pyrido[1,2-a]pyrazine]-7′-carboxamide hydrochloride] | 3.2 nM |
| CC(C)N1C[C@]2(C[C@H]2C(=O)N(C)C)n2cc(C(=O)NCc3cccc(Cl)c3F)c(=O)c(O)c2C1=O [Example T14, (1R,2R)-N^7′-(3-chloro-2-fluorobenzyl)-9′-hydroxy-2′-isopropyl-N^2,N^2-dimethyl-1′,8′-dioxo-1′,2′,3′,8′-tetrahydrospiro[cyclopropane-1,4′ -pyrido[1,2-a]pyrazine]-2,7′-dicarboxamide hydrochloride] | 4.8 nM |
| CC(C)N1C[C@@]2(C[C@@H]2CO)n2cc(C(=O)NCc3cccc(Cl)c3F)c(=O)c(O)c2C1=O [Example T11, (1S,2S)-N-(3-chloro-2-fluorobenzyl)-9′-hydroxy-2-(hydroxymethyl)-2′-isopropyl-1′,8′-dioxo-1′,2′,3′,8′-tetrahydrospiro[cyclopropane-1,4′-pyrido[1,2-a]pyrazine]-7′-carboxamide hydrochloride] | 6 nM |
| CCOC[C@@H]1C[C@]12CN(C)C(=O)c1c(O)c(=O)c(C(=O)NCc3ccc(OC)c(Cl)c3F)cn12 [Example T35, (1R,2R)-N-(3-chloro-2-fluoro-4-methoxybenzyl)-2-(ethoxymethyl)-9′-hydroxy-2′-methyl-1′,8′-dioxo-1′,2′,3′,8′-tetrahydrospiro[cyclopropane-1,4′-pyrido[1,2-a]pyrazine]-7′-carboxamide hydrochloride] | 17 nM |

Same assay, conditions: read-out: EC50

| SMILES | EC50 |
| --- | --- |
| CO[C@H]1C[C@]2(CN(C)C(=O)c3c(O)c(=O)c(C(=O)NCc4cccc(Cl)c4F)cn32)C1 [Example 1, N-(3-chloro-2-fluorobenzyl)-9′-hydroxy-cis-3-methoxy-2′-methyl-1′,8′-dioxo-1′,2′,3′,8′-tetrahydrospiro[cyclobutane-1,4′-pyrido[1,2-a]pyrazine]-7′-carboxamide hydrochloride] | 3.1 nM |
